Test results taken from US20100247659A1, “PHENYLPHTHALIMIDE ANALOGS FOR TREATING DIABETIC MACULAR EDEMA” (Charlesson, LLC, priority 2007, published 2010).

What was measured:
HUVEC [1] = experiment: MTT cell proliferation assay, HUVEC; type: cell-based; conditions: Homo sapiens, 72 h, treated 3 days, read-out: IC50, inhibition of proliferation of HUVEC
Description: (§1) Cell culture: All cell culture media and supplements were purchased from Cellgro unless otherwise indicated. Human Umbilical Vein Endothelial Cells (HUVEC) were obtained from American Type Culture Collection and grown in the EBM-MV2 medium (Clonetics). Bovine Retinal Endothelial Cells (BREC) and pericytes were isolated according to a modified method as described previously (Wong, et al. Investig. Opthalmol. Vis. Sci. 1987, 28: 1767-1775). Twelve bovine eyes were obtained from a local slaughterhouse (Country Home Meats). The retinas were removed and washed four times in DMEM. Subsequently retinas were homogenized and centrifuged at 400×g for 10 min. The resultant pellet was resuspended in an isolation medium (DMEM with 100 IU/ml penicillin, 100 μg/ml streptomycin and 250 ng/ml amphotericin). Microvessels were trapped on an 85 μm nylon mesh (Locker Wire Weavers LTD) and transferred to a petri dish (Falcon) containing 10 ml of an enzyme cocktail which consisted of 600 μg/ml DNase I (Sigma), 165 μg/ml collagenase (Sigma) and 700 μg/ml Pronase E (EMD) and were incubated at 37° C. for 20 min. The resultant vessel fragments were trapped on a 53 μm nylon mesh (Locker Wire Weavers LTD), washed with the isolation medium and centrifuged at 400×g for 5 min. For selective culture of pericytes, the resultant pellet was resuspended in 10 ml of the pericyte growth medium and transferred into 75-cm^2 plastic tissue culture flasks (BD Biosciences). For selective culture of BRCECs, the resultant pellet was resuspended in 10 ml of the BRCEC growth medium and transferred into 75-cm^2 collagen-coated plastic tissue culture flasks (BD Biosciences). The BRCEC growth medium consisted of DMEM supplemented with 10% human serum, 1% glutamine, 1 mg/ml insulin, 550 μg/ml transferring, 670 ng/ml selenium, 100 IU/ml penicillin, 100 μg/ml streptomycin, 250 ng/ml amphotericin, 90 μg/ml heparin (Sigma) and 15 μg/ml endothelial cell growth supplement (Upstate). Cells were cultured at 37° C. and 5% CO2 with regular medium change every 3 days. Confluence cultures were passaged by detaching the cells with 0.25% trypsin and plated at a split 1:3. […] At passage 2, BRCECs and pericytes were stored in a liquid nitrogen tank for future use.
MTT assay: Cells were seeded at a density of 5×10^4 cells per well in 400 μl of growth medium in triplicate in 24-well plates (Nalge Nunc) or gelatin-coated 24-well plates. Twenty-four hours after seeding, the growth medium was replaced by a medium containing 1% FBS, with or without different concentrations of thalidomide or phenylphthalimide analogs. After the cells were treated for 48-72 h, MTT was added to a final concentration of 0.5 mg of medium per ml and incubated for 4 h at 37° C. in 5% CO2. An equal volume of solubilizer buffer is then added, following the protocol recommended by the manufacturer (Roche Molecular Biochemicals), the cells will be incubated overnight at 37° C. in 5% CO2. The absorbance of the formazen product was measured at a wavelength of 570 nm, with 750 nm as the (subtracted) reference wavelength.
Primary endothelial cells (HUVEC and BRCEC) and pericytes were treated with various concentrations of the compounds for 3 days. Viable cells were quantified using MTT assay and IC50 of each compound was calculated (mean±SD, n=3, FIG. 1). The IC50 values represent the means and SE of 3 independent experiments.

HUVEC [2] = experiment: Endothelial cell migration (invasion) assay; type: cell-based; conditions: Homo sapiens, VEGF 4 ng/ml, invasion through Matrigel, read-out: IC50, inhibition of HUVEC migration
Experimental: Cells were allowed to invade for 22±1 hours. Cells were labeled post invasion with Calcein AM (4 μg/ml) and measured by detecting the fluorescence of cells that invaded through the BD Matrigel™ Matrix with an Applied Biosystems CytoFluor® 4000 plate reader at 485 nm excitation and 530 nm emission.
In this assay system, human endothelial cells are allowed to invade and are then labeled with fluorescent dye Calcein AM before quantification on a fluorometer.
In FIG. 2B, cells were seeded at 5×10^4/insert in EBM-2 containing 0.1% BSA in multi-well inserts. The assembled assays were allowed to proceed for 6 hours. The results are expressed as percent inhibition of migration as compared to control (no inhibitor). Data represents the average of 3 experiments, each run in triplicate. The bars represent mean±SD.

STZ-diabetic rats = experiment: Retinal vascular leakage in STZ-diabetic rats, intravitreal injection; type: in vivo, rat; conditions: single intravitreal 1.0 μg/eye (5 μl 0.8 mM), 48 h
Experimental: Induction of diabetes by streptozotocin (STZ): BN rats (8 weeks of age) were given a single intraperitoneal injection of fresh made streptozotocin (STZ) (Sigma, 50 mg/kg in 10 mM of citrate buffer, pH 4.5) following an overnight fasting. Control rats received an injection of citrate buffer alone. Blood glucose levels were checked at 24 hours following the last STZ injection and once a week thereafter, and only the animals with glucose levels higher than 350 mg/dl were considered diabetic. Rats with hyperglycemia for 2 weeks were used for these experiments.
Intravitreal injection of compounds: Thalidomide and the phenylphthalimide analogs Compounds 1, 2 and Compound 4 were dissolved in vehicle (BN rat serum) and sterilized by filtration. OIR and STZ-diabetic BN rats received an intravitreal injection of 0.5-2.0 μg/eye of (5 μl/eye, 0.1-0.4 mg/ml in BN rat serum) of thalidomide, Compounds 1, 2 or Compound 4 into the right eye and the equal volume of the BN rat serum into the left eye.
Evans blue dye (Sigma) was dissolved in 0.9% saline (30 mg/ml), sonicated for 5 min and filtered through a 0.45-μm filter (Millipore). The rats were then anesthetized, and Evans blue (30 mg/kg) was injected over 10 s through the femoral vein using a glass capillary under microscopic inspection. Evans blue non-covalently binds to plasma albumin in the blood stream. Immediately after Evans blue infusion, the rats turned visibly blue, confirming their uptake and distribution of the dye. The rats were kept on a warm pad for 2 h to ensure the complete circulation of the dye. Then the chest cavity was opened, and the rats were perfused via the left ventricle with 1% paraformaldehyde in citrate buffer (pH 4.2) which was pre-warmed to 37° C. to prevent vasoconstriction. The perfusion lasted 10 min under the physiological pressure of 120 mmHg, in order to clear the dye from the vessel. Immediately after perfusion, the eyes were enucleated and the retinas were carefully dissected under an operating microscope. Evans blue dye was extracted by incubating each sample in 150 μl of formamide for 18 h at 70° C. The extract was centrifuged (Beckman) at 70,000 rpm (Rotor type: TLA 100.3) for 20 min at 4° C. Absorbance was measured using 100 μl of the supernatant at 620 nm by using Spectrophotometer DU800 (Beckman). The concentration of Evans blue in the extract was calculated from a standard curve of Evans blue in formamide and normalized by the total protein concentration in each sample. Results were expressed in mg of Evans blue per mg of total protein content.
Diabetes was induced by injection of STZ (50 mg/kg, i.v.) into adult BN rats after overnight fasting. Blood glucose levels were monitored at the second day after the injection and once a week thereafter. Rats with glucose levels above 350 mg/dl were considered as diabetic and used for the study. thalidomide, Compounds 1, 2 and 4 were separately injected into the vitreous space (5 μl, 0.8 mM in BN rat serum) of the right eye of STZ-diabetic rats 2 wks after the induction of diabetes. At 48 h after the injection, retinal vascular leakage was measured using the Evans blue-albumin leakage method.
To determine the dose-response relationship of the effect of Compound 4 and thalidomide, the STZ-diabetic rats received an intravitreal injection of Compound 4 and thalidomide with doses of 0.5, 0.75 and 1.0 μg/eye (5 μl/eye of 0.10, 0.15 and 0.20 mg/ml), respectively.

BRCEC = experiment: MTT cell proliferation assay, BRCEC; type: cell-based, bovine; conditions: Bos taurus, 72 h, treated 3 days, read-out: IC50, inhibition of proliferation of BRCEC
Description: as §1
MTT assay: Cells were seeded at a density of 5×10^4 cells per well in 400 μl of growth medium in triplicate in 24-well plates (Nalge Nunc) or gelatin-coated 24-well plates. […] The absorbance of the formazen product was measured at a wavelength of 570 nm, with 750 nm as the (subtracted) reference wavelength.
Primary endothelial cells (HUVEC and BRCEC) and pericytes were treated with various concentrations of the compounds for 3 days. Viable cells were quantified using MTT assay and IC50 of each compound was calculated (mean±SD, n=3, FIG. 1). […]

[3] = tested on: CAM blood vessel formation induced by VEGF/bFGF; experiment: Chicken chorioallantoic membrane (CAM) assay; type: in vivo; conditions: 200 ng VEGF-165/bFGF, 48 hr
Experimental: Chicken chorioallantoic membrane (CAM) assay: The fertile Leghorn chicken eggs were incubated in a humidified environment at 37.5° C. for 10 days. […] Anti-angiogenic compounds were then added 8 hr after the VEGF/bFGF at saturation to the same microbial testing disk, and the embryos were incubated for an additional 40 h. CAMs were then removed, quickly fixed with 4% paraformaldehyde in PBS, placed onto Petri dishes, and digitized images taken at 7.5× using a Nikon dissecting microscope and Scion Imaging system. A 1×1-cm grid was then added to the digital CAM images and the average number of vessels within 5-7 grids counted as a measure of vascularity.
CAM assay was used for in vivo anti-angiogenic studies. The fertile leghorn chicken eggs were allowed to incubate in a humidified environment at 37.5° C. for 10 days. […] Anti-angiogenic compounds were then added 8 hours after the VEGF/bFGF at saturation to the same microbial testing disk and embryos allowed to incubate for an additional 40 hours. After 48 hr, CAMs were removed, quickly fixed with 4% paraformaldehyde in PBS, placed onto Petri dishes, and digitized images taken at 7.5× using a Nikon dissecting microscope and Scion Imaging system. A 1×1-cm grid was then added to the digital CAM images and the average number of vessels within 5-7 grids counted as a measure of vascularity.
FIG. 14 is a table comparing the effect of Compound 4 on blood vessel formation. […] Data represent mean±SD of 8-16 samples from 2-3 separate experiments.

SMILES	IC50 (HUVEC [1])	IC50 (HUVEC [2])	reduction of retinal vascular leakage vs vehicle control (STZ-diabetic rats)	IC50 (BRCEC)	ED50, dose reducing blood vessel number to 50% of VEGF/bFGF alone group [3]
Nc1cccc2c1C(=O)N(C1CCC(=O)NC1=O)C2=O (stereo not drawn) [Actimid]	> 100 µM				
CC(C)c1cccc(C(C)C)c1N1C(=O)c2ccc(O)cc2C1=O [Compound 1]	3.3 µM	1 µM	61%	1.94 µM	
CC(C)c1cccc(C(C)C)c1N1C(=O)c2ccccc2C1=O [Compound 2, (2,6-diisopropylphenyl)-1H-isoindole-1,3-dione]	3 µM			3.56 µM	
Nc1cccc2c1CN(C1CCC(=O)NC1=O)C2=O (stereo not drawn) [Revimid]	> 100 µM				
Cc1cc(C)c(/C=C2\C(=O)Nc3ccccc32)[nH]1 [SU5416]					7.8 μg/embryo
